Several values for one entry are separate records, joined by “and”; a condition that tells them apart may be missing. Equal entries are not always repeated. Toxic doses and inconclusive results are not listed. Rule for the calls: active = survival T/C of 150% or more; inactive = T/C below 125% in these data.
Test system: CD2F1 mice, L1210 leukemia ip, survival T/C
Test: NCI In Vivo Anticancer Drug Screen. Data for tumor model L1210 Leukemia (intraperitoneal) in CD2F1 (CDF1) mice
Conditions: higher = longer survival
In short: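 Mice carrying a transplanted tumor received test compound or vehicle alone. The value is the measurement in the treated group divided by that in the vehicle-treated control group.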

[1] = endpoint: mean survival time, dose: 100.0 mg/kg/injection, schedule: Q04DX003 (ip), vehicle: saline
[2] = endpoint: mean survival time, dose: 200.0 mg/kg/injection, schedule: Q04DX003 (ip), vehicle: saline
[3] = endpoint: mean survival time, dose: 50.0 mg/kg/injection, schedule: Q01DX009 (ip), vehicle: saline with Tween-80
[4] = endpoint: mean survival time, dose: 100.0 mg/kg/injection, schedule: Q01DX009 (ip), vehicle: saline with Tween-80
[5] = endpoint: mean survival time, dose: 100.0 mg/kg/injection, schedule: Q04DX003 (ip), vehicle: saline with Tween-80
[6] = endpoint: mean survival time, dose: 200.0 mg/kg/injection, schedule: Q04DX003 (ip), vehicle: saline with Tween-80

Measured: T/C

CCCCCCCCCCCC[NH-].CCCCCCCCCCCC[NH-].[Cl][Pt+2][Cl]
inactive: endpoint: mean survival time, dose: 6.25 mg/kg/injection, schedule: Q04DX003 (ip), vehicle: saline + alcohol 111 % of control | endpoint: mean survival time, dose: 12.5 mg/kg/injection, schedule: Q04DX003 (ip), vehicle: saline + alcohol 95 % of control | endpoint: mean survival time, dose: 25.0 mg/kg/injection, schedule: Q04DX003 (ip), vehicle: saline + alcohol 100 % of control | endpoint: mean survival time, dose: 50.0 mg/kg/injection, schedule: Q04DX003 (ip), vehicle: saline + alcohol 103 % of control | endpoint: mean survival time, dose: 100.0 mg/kg/injection, schedule: Q04DX003 (ip), vehicle: saline + alcohol 100 % of control

O=NN1C(=O)C2CC3CC(C2)CC1C3
inactive: endpoint: mean survival time, dose: 12.5 mg/kg/injection, schedule: Q04DX003 (ip), vehicle: acetone 94 % of control

N#CO
inactive: endpoint: mean survival time, dose: 50.0 mg/kg/injection, schedule: Q01DX009 (ip), vehicle: saline sonified 100 % of control | endpoint: mean survival time, dose: 100.0 mg/kg/injection, schedule: Q01DX009 (ip), vehicle: saline sonified 118 % of control | [1] 98 % of control | [2] 112 % of control

Cc1cn(C2CC(O)C(CO)O2)c(=O)nc1NC1CCCCCCCCCCC1 (centres undefined)
inactive: endpoint: median survival time, dose: 12.5 mg/kg/injection, schedule: Q01DX005 (ip), vehicle: distilled water + Tween-80 103 % of control | endpoint: median survival time, dose: 25.0 mg/kg/injection, schedule: Q01DX005 (ip), vehicle: distilled water + Tween-80 102 % of control | endpoint: median survival time, dose: 50.0 mg/kg/injection, schedule: Q01DX005 (ip), vehicle: distilled water + Tween-80 96 % of control | endpoint: median survival time, dose: 100.0 mg/kg/injection, schedule: Q01DX005 (ip), vehicle: distilled water + Tween-80 89 % of control

Cc1cc2cc3cc(C)c(N)cc3nc2cc1N
inactive: endpoint: mean survival time, dose: 3.12 mg/kg/injection, schedule: Q01DX009 (ip), vehicle: saline with Tween-80 103 % of control and 106 % of control | endpoint: mean survival time, dose: 6.25 mg/kg/injection, schedule: Q01DX009 (ip), vehicle: saline with Tween-80 101 % of control and 107 % of control | endpoint: mean survival time, dose: 12.5 mg/kg/injection, schedule: Q01DX009 (ip), vehicle: saline with Tween-80 106 % of control | endpoint: mean survival time, dose: 25.0 mg/kg/injection, schedule: Q01DX009 (ip), vehicle: saline with Tween-80 98 % of control and 106 % of control | [3] 86 % of control and 97 % of control | [4] 92 % of control

N#CSCCOCCSC#N
inactive: endpoint: mean survival time, dose: 2.5 mg/kg/injection, schedule: Q04DX003 (ip), vehicle: saline with Tween-80 100 % of control | endpoint: mean survival time, dose: 5.0 mg/kg/injection, schedule: Q04DX003 (ip), vehicle: saline with Tween-80 96 % of control

c1ccc2[nH]c(CN(CCN(Cc3nc4ccccc4[nH]3)Cc3nc4ccccc4[nH]3)Cc3nc4ccccc4[nH]3)nc2c1
inactive: endpoint: median survival time, dose: 3.12 mg/kg/injection, schedule: Q01DX005 (ip), vehicle: DMSO 100 % of control | endpoint: median survival time, dose: 6.25 mg/kg/injection, schedule: Q01DX005 (ip), vehicle: DMSO 100 % of control

CC1CC[N-]CC1.CC1CC[N-]CC1.CC1CC[N-]CC1.CC1CC[N-]CC1.CS(C)=O.CS(C)=O.[Cl-].[Cl-].[Cl-].[Cl-].[Pt+4].[Rh+3]
inactive: endpoint: mean survival time, dose: 0.2 mg/kg/injection, schedule: Q01DX009 (ip), vehicle: water 97 % of control | endpoint: mean survival time, dose: 0.4 mg/kg/injection, schedule: Q01DX009 (ip), vehicle: water 92 % of control | endpoint: mean survival time, dose: 0.78 mg/kg/injection, schedule: Q04DX003 (ip), vehicle: Klucel (hydroxypropylcellulose) (HPC) 102 % of control | endpoint: mean survival time, dose: 0.8 mg/kg/injection, schedule: Q01DX009 (ip), vehicle: water 93 % of control | endpoint: mean survival time, dose: 1.5 mg/kg/injection, schedule: Q01DX009 (ip), vehicle: water 97 % of control | endpoint: mean survival time, dose: 1.56 mg/kg/injection, schedule: Q04DX003 (ip), vehicle: Klucel (hydroxypropylcellulose) (HPC) 98 % of control | endpoint: mean survival time, dose: 3.0 mg/kg/injection, schedule: Q01DX009 (ip), vehicle: water 92 % of control | endpoint: mean survival time, dose: 3.13 mg/kg/injection, schedule: Q04DX003 (ip), vehicle: Klucel (hydroxypropylcellulose) (HPC) 102 % of control | endpoint: mean survival time, dose: 6.25 mg/kg/injection, schedule: Q04DX003 (ip), vehicle: water 103 % of control

OCC1OC(n2cnc3c4ccccc4ccc32)C(O)C1O (centres undefined)
inactive: endpoint: median survival time, dose: 10.0 mg/kg/injection, schedule: Q01DX005 (ip), vehicle: saline with Tween-80 110 % of control | endpoint: median survival time, dose: 16.25 mg/kg/injection, schedule: Q01DX005 (ip), vehicle: saline with Tween-80 98 % of control | endpoint: median survival time, dose: 20.0 mg/kg/injection, schedule: Q01DX005 (ip), vehicle: saline with Tween-80 103 % of control | endpoint: median survival time, dose: 32.5 mg/kg/injection, schedule: Q01DX005 (ip), vehicle: saline with Tween-80 100 % of control | endpoint: median survival time, dose: 40.0 mg/kg/injection, schedule: Q01DX005 (ip), vehicle: saline with Tween-80 97 % of control | endpoint: median survival time, dose: 65.0 mg/kg/injection, schedule: Q01DX005 (ip), vehicle: saline with Tween-80 107 % of control | endpoint: median survival time, dose: 80.0 mg/kg/injection, schedule: Q01DX005 (ip), vehicle: saline with Tween-80 103 % of control | endpoint: median survival time, dose: 130.0 mg/kg/injection, schedule: Q01DX005 (ip), vehicle: saline with Tween-80 97 % of control

CCC(C#N)=C1CCCCC1
inactive: endpoint: mean survival time, dose: 25.0 mg/kg/injection, schedule: Q04DX003 (ip), vehicle: saline 93 % of control | endpoint: mean survival time, dose: 50.0 mg/kg/injection, schedule: Q04DX003 (ip), vehicle: saline 91 % of control | [1] 91 % of control

Cc1ccc(S(=O)(=O)N(C)Cc2ccccc2)cc1
inactive: [4] 96 % of control | endpoint: mean survival time, dose: 200.0 mg/kg/injection, schedule: Q01DX009 (ip), vehicle: saline with Tween-80 106 % of control | endpoint: mean survival time, dose: 400.0 mg/kg/injection, schedule: Q01DX009 (ip), vehicle: saline with Tween-80 98 % of control

COc1cc(C(O)C(Cl)(Cl)Cl)ccc1O (centres undefined)
inactive: endpoint: mean survival time, dose: 100.0 mg/kg/injection, schedule: Q01DX009 (ip), vehicle: other 94 % of control | endpoint: mean survival time, dose: 200.0 mg/kg/injection, schedule: Q01DX009 (ip), vehicle: other 105 % of control | endpoint: mean survival time, dose: 400.0 mg/kg/injection, schedule: Q01DX009 (ip), vehicle: other 94 % of control

Nc1ccc2cc(Cl)ccc2c1
inactive: [3] 103 % of control | [4] 105 % of control | [5] 95 % of control | [6] 95 % of control

O=C(O)CC(=O)O.[NH-]C1CCCCC1[NH-].[Pt+2] (centres undefined)
inactive: endpoint: mean survival time, dose: 1.25 mg/kg/injection, schedule: Q01DX009 (ip), vehicle: saline sonified 110 % of control | endpoint: mean survival time, dose: 2.5 mg/kg/injection, schedule: Q01DX009 (ip), vehicle: saline sonified 119 % of control | endpoint: mean survival time, dose: 10.0 mg/kg/injection, schedule: Q01DX001 (ip), vehicle: suspension in saline 124 % of control | endpoint: mean survival time, dose: 10.0 mg/kg/injection, schedule: Q01DX009 (oral), vehicle: saline 98 % of control | endpoint: mean survival time, dose: 20.0 mg/kg/injection, schedule: Q01DX001 (oral), vehicle: saline 98 % of control | endpoint: mean survival time, dose: 20.0 mg/kg/injection, schedule: Q01DX009 (oral), vehicle: saline 109 % of control | endpoint: mean survival time, dose: 40.0 mg/kg/injection, schedule: Q01DX001 (oral), vehicle: saline 98 % of control | endpoint: mean survival time, dose: 40.0 mg/kg/injection, schedule: Q01DX009 (oral), vehicle: saline 100 % of control | endpoint: mean survival time, dose: 80.0 mg/kg/injection, schedule: Q01DX001 (oral), vehicle: saline 100 % of control | endpoint: mean survival time, dose: 160.0 mg/kg/injection, schedule: Q01DX001 (oral), vehicle: saline 100 % of control | endpoint: mean survival time, dose: 320.0 mg/kg/injection, schedule: Q01DX001 (oral), vehicle: saline 100 % of control | endpoint: mean survival time, dose: 320.0 mg/kg/injection, schedule: Q01DX009 (oral), vehicle: saline 120 % of control | endpoint: median survival time, dose: 4.0 mg/kg/injection, schedule: Q01DX009 (ip), vehicle: dextrose 110 % of control

CC(C)(C)C(=O)CC(=O)C(C)(C)C
inactive: [5] 95 % of control and 94 % of control | [6] 91 % of control and 100 % of control | endpoint: mean survival time, dose: 400.0 mg/kg/injection, schedule: Q04DX003 (ip), vehicle: saline with Tween-80 95 % of control

CN(C)P1(N)=NP(N)(N(C)C)=NP(N)(N(C)C)=N1 (centres undefined)
inactive: [1] 100 % of control | [2] 94 % of control | endpoint: mean survival time, dose: 400.0 mg/kg/injection, schedule: Q04DX003 (ip), vehicle: saline 96 % of control

CCN(CC)n1c(=O)[nH]n(CC)c1=O
inactive: endpoint: mean survival time, dose: 100.0 mg/kg/injection, schedule: Q01DX001 (ip), vehicle: saline with Tween-80 101 % of control | endpoint: mean survival time, dose: 100.0 mg/kg/injection, schedule: Q04DX002 (ip), vehicle: saline with Tween-80 101 % of control | endpoint: mean survival time, dose: 200.0 mg/kg/injection, schedule: Q01DX001 (ip), vehicle: saline with Tween-80 97 % of control | endpoint: mean survival time, dose: 200.0 mg/kg/injection, schedule: Q04DX002 (ip), vehicle: saline with Tween-80 93 % of control | endpoint: mean survival time, dose: 400.0 mg/kg/injection, schedule: Q01DX001 (ip), vehicle: saline with Tween-80 100 % of control | endpoint: mean survival time, dose: 400.0 mg/kg/injection, schedule: Q04DX002 (ip), vehicle: saline with Tween-80 101 % of control

— PubChem BioAssay AID256 (DTP/NCI, 2004)
